Values joined by “and” are separate entries in the source; they are usually repeats but may differ in a detail not shown here. Equal entries are not always repeated. Where two headings read alike, the source gives them in different places.
How the values were obtained:
USP30 = biological target: T1, USP30 (Homo sapiens, UniProt Q70CQ3); assay: High-throughput screening, Ub-RhoMP, single dose 1.25 µM; format: biochemical; set-up: USP30 CD (57-517); purchased Ubiquigent 64-0057-050; conditions: for %inhibition USP30: crude in-plate synthesized compound, 1.25 µM assuming full conversion; for BB %inhibition USP30: individual amine building block (plate NCN-5)
T1 sequence (Q70CQ3 57-517): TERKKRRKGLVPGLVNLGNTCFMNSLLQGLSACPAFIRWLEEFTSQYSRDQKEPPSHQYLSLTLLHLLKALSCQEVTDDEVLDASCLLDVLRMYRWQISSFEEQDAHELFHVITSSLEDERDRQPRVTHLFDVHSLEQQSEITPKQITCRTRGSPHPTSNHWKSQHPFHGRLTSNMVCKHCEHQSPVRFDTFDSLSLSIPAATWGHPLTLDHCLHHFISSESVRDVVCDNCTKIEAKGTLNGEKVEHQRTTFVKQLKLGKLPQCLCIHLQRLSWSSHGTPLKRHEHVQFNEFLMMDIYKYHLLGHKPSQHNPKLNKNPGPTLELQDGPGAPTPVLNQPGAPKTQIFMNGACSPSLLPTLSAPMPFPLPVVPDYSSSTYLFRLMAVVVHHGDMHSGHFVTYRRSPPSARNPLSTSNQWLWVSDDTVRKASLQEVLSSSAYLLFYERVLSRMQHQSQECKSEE
Protocol: (§1) Since the in‐plate synthesis was conducted in 1536‐well Echo plates, the compounds could readily be transferred from these plates into 1536‐well assay plates using acoustic liquid dispensing (Figure 2a) and subjected to HTS. We screened the whole 7536 compound library against a panel of twelve enzymes, including three DUBs from the UCH family, two DUBs from the OTU family, five DUBs from the USP family, plus ISG15 protease USP18, and SUMO protease SENP1. Each compound was tested at a single dose of 1.25 µM, assuming full conversion (10 mM in DMSO of the formed products) during the in‐plate synthesis, using the fluorogenic assay described above. […] The compounds are sorted by the amine building blocks (BB1‐16), and within each BB, sorted by carboxylic acid (CA1‐471), thereby providing a comprehensive and systematic overview of the overall inhibition by each BB and CA combination. Some interesting patterns can be obtained from this map. […] Indeed, BB10 is the privileged scaffold for UCHL1 as it originates from UCHL1 inhibitor 5 (Figure 1). […] On the other hand, OTUD1 and USP32 show a much higher hit rate, and this is even more pronounced for USP30 and ISG15 protease mUSP18, each showing many active compounds distributed over several BB's.
(§2) Purified recombinant enzymes used in this study
(§3) High-throughput screening
(§4) The screens were performed at room temperature in “flat bottom, non-treated, black […]
(§5) µM. The compounds (10 nL each) were transferred from the 1 mM daughter plates to the […]
(§6) Four wells containing DMSO
(§7) (10 nL) and four wells containing NEM (10 mM final concentration) were used in each plate […]
(§8) solution (1.33x final concentration) was added to each well, followed by incubation for 30 min.
(§9) Next, 2 µL of a substrate solution (4x final concentration) was added to each well (Ub-RhoMP[2]
(§10) After 1h or 2h incubation the
(§11) The percentage inhibition was calculated for each well using the […]
(§12) Where FIx is the fluorescence intensity of each well, FIpos is the average fluorescence intensity of the positive (NEM) control wells, and FIneg is the average fluorescence intensity of the negative (DMSO) control wells.

USP24 = biological target: T2, USP24 (Homo sapiens, UniProt Q9UPU5); assay: as above; format: biochemical; conditions: for %inhibition USP24: crude in-plate synthesized compound, 1.25 µM assuming full conversion; for inhibition at 1.25 µM: individual amine building block (plate NCN-5), read-out: BB %inhibition USP24
T2 construct: (1-2620); His10; purchased Biotechne E-616
T2 sequence (Q9UPU5 whole entry): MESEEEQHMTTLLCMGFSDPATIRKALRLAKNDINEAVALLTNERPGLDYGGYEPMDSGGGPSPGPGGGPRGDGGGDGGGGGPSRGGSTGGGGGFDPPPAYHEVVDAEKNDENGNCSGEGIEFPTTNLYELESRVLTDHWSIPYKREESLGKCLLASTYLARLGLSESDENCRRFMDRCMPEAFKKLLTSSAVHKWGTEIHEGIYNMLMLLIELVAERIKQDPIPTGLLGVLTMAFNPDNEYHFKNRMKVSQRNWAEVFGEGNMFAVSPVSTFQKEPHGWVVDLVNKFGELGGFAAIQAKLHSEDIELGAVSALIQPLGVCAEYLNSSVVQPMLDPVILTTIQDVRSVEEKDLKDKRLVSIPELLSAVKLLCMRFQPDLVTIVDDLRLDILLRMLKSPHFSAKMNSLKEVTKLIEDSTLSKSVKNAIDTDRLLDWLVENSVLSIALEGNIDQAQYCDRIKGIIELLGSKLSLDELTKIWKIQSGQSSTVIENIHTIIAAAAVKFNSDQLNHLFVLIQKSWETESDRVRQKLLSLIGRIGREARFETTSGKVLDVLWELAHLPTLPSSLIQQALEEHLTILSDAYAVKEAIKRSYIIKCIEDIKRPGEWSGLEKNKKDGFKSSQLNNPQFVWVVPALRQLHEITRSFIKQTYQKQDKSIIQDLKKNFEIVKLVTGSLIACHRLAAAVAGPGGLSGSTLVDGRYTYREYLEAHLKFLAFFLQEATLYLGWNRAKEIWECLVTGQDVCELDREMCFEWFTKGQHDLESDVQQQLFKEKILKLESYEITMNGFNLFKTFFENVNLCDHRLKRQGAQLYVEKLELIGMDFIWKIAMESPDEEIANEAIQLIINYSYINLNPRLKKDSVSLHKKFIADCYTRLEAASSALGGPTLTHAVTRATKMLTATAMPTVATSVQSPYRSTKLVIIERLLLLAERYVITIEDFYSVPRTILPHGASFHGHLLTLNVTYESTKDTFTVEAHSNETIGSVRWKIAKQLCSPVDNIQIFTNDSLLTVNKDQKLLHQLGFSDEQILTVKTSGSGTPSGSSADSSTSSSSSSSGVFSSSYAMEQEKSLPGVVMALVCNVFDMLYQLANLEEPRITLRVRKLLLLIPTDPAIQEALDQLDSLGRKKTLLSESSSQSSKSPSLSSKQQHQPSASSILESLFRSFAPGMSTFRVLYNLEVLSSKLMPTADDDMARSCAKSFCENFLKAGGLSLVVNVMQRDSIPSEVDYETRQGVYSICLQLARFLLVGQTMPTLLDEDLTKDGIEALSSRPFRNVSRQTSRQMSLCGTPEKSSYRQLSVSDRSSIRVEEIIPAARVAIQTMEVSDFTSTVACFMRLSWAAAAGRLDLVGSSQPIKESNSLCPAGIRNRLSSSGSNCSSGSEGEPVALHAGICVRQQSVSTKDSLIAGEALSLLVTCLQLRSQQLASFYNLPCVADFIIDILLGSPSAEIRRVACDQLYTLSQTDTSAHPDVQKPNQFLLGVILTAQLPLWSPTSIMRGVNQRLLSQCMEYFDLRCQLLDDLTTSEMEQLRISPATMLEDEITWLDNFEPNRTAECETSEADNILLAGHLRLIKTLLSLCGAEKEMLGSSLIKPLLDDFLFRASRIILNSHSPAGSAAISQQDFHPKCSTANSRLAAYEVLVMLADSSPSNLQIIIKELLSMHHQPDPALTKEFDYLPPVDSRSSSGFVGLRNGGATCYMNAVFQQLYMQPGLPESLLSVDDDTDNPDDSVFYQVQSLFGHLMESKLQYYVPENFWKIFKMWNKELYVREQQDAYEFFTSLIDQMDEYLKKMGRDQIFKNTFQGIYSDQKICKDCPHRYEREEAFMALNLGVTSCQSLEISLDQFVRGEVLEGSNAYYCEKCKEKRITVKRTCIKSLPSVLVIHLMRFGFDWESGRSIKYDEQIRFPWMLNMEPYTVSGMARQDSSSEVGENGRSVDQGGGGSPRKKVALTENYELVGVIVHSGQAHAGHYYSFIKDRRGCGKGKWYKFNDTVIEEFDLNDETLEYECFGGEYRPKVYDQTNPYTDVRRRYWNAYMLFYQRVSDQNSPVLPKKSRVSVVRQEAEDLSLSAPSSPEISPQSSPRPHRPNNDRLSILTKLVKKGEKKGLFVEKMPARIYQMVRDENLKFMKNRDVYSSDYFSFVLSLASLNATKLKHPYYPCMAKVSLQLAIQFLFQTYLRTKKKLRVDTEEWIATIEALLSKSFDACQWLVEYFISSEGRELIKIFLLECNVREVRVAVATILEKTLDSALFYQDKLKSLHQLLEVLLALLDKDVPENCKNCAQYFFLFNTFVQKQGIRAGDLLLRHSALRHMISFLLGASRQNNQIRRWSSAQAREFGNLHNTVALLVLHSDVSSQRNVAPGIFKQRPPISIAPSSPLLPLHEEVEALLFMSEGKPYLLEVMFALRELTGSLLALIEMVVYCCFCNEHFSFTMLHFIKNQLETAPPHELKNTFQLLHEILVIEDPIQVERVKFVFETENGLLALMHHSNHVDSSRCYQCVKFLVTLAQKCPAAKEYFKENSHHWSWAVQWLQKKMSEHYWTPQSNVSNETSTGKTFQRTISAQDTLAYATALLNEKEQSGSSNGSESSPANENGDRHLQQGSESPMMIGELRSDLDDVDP
Protocol: as §1, §2, §3, §4, §5, §6, §7, §8, §9, §10, §11, §12

USP16 = USP16 (Homo sapiens, UniProt Q9Y5T5); assay: as above; format: biochemical; set-up: (22-823); His-tag (N); made in house; conditions: for %inhibition USP16: crude in-plate synthesized compound, 1.25 µM assuming full conversion; for BB %inhibition USP16: individual amine building block (plate NCN-5)
USP16, sequence (Q9Y5T5 22-823): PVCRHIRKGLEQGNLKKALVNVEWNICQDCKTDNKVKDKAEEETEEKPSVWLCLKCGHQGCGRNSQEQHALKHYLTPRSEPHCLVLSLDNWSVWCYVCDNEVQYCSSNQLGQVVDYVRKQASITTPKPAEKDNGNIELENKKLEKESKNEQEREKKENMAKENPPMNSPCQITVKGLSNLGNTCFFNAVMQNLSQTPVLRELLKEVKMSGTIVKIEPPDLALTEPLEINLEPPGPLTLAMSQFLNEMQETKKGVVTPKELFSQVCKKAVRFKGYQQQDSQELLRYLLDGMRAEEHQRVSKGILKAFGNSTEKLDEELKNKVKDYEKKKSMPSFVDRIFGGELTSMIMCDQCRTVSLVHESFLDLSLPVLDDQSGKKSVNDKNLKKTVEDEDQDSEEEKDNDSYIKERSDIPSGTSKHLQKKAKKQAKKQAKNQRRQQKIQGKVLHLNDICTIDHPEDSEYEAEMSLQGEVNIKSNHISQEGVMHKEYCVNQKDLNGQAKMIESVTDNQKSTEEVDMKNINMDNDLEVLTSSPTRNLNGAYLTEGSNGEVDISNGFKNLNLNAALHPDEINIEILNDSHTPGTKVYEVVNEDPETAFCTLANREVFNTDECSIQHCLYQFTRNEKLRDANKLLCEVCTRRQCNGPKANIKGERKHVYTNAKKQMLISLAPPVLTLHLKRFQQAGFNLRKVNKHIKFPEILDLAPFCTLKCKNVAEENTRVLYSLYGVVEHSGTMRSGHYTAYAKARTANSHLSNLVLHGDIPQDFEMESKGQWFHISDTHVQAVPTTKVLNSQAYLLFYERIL
Protocol: as §1, §2, §3, §4, §5, §6, §7, §8, §9, §10, §11, §12

mUSP18 = biological target: T3, mUSP18 (Mus musculus, UniProt Q9WTV6); assay: High-throughput screening, ISG15ct-RhoMP, single dose 1.25 µM; format: biochemical, murine
T3 construct: (46-368); His-tag (N); made in house
T3 sequence (Q9WTV6 46-368): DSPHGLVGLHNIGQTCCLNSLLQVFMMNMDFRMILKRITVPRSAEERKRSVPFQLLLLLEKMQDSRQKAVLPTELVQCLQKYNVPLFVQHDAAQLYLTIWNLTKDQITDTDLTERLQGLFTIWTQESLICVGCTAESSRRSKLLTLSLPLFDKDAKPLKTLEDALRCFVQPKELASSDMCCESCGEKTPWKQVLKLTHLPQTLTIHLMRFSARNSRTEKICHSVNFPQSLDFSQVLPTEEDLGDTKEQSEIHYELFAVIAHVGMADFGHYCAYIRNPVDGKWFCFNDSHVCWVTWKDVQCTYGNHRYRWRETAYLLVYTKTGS

SENP1 = biological target: T4, SENP1 (Homo sapiens, UniProt Q9P0U3); assay: High-throughput screening, single dose 1.25 µM; format: biochemical; conditions: for %inhibition SENP1: crude in-plate synthesized compound, 1.25 µM assuming full conversion; for inhibition at 1.25 µM: individual amine building block (plate NCN-5), read-out: BB %inhibition SENP1
T4 sequence (Q9P0U3 419-644): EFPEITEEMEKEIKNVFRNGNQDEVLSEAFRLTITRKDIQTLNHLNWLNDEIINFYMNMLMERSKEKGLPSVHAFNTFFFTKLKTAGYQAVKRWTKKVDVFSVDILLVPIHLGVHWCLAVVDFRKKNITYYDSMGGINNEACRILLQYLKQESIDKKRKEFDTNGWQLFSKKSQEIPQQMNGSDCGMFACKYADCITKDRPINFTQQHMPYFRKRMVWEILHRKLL
Protocol: as §1, §2, §3, §4, §5, §6, §7, §8, §9, §10, §11, §12

OTUB2 = biological target: T5, OTUB2 (Homo sapiens, UniProt Q96DC9); assay: High-throughput screening, Ub-RhoMP, single dose 1.25 µM; format: biochemical; set-up: (1-234); His6 (cleaved yes); made in house; conditions: individual amine building block (plate NCN-5); read-out: BB %inhibition OTUB2
T5 sequence (Q96DC9 1-234): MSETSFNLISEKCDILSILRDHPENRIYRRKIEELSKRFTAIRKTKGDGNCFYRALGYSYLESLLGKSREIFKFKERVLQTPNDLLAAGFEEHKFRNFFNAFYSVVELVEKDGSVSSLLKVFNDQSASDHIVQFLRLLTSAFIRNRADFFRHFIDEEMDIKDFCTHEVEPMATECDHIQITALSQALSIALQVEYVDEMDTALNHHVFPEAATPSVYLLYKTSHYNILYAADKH
Protocol: as §1, §2, §3, §4, §5, §6, §7, §8, §9, §10, §11, §12

[1] = crude in-plate synthesized compound, 1.25 µM assuming full conversion, read-out: %inhibition mUSP18
[2] = individual amine building block (plate NCN-5), read-out: BB %inhibition mUSP18

SMILES | %inhibition USP30 (USP30) [%] | %inhibition USP24 (USP24) [%] | %inhibition USP16 (USP16) [%] | inhibition at 1.25 µM (mUSP18; [1]) [%] | %inhibition SENP1 (SENP1) [%] | inhibition at 1.25 µM (OTUB2) [%] | BB %inhibition USP30 (USP30) | inhibition at 1.25 µM (USP24) [%] | BB %inhibition USP16 (USP16) [%] | inhibition at 1.25 µM (mUSP18; [2]) [%] | inhibition at 1.25 µM (SENP1) [%]
N#CN1CCC[C@H](N)C1 [BB8] |  |  |  |  |  | -1.3 | -2.4% | -0.279 | -0.5 | -1.5 | 0.5
N#CN1CCC2(CCNC2)C1 (centres unmarked) [BB14] |  |  |  |  |  | 6.4 | 3.9% | 3.8 | 5.9 | -1 | 8.7
N#CN1CCC(N)CC1 [BB2] |  |  |  |  |  | 0.9 | 4.8% | 5.5 | 8.1 | 4.3 | -2.9
N#CN1CC[C@H](C(=O)Nc2nc3c(s2)CNCC3)C1 [BB10] |  |  |  |  |  | -5.1 | -2.0% | -1.8 | -2.4 | 0.154 | -5.4
N#CN1CC[C@H](CN)C1 [BB11] |  |  |  |  |  | -6.8 | -5.7% | -6.5 | -4.8 | -3.8 | -12.3
N#CN1C[C@@H](F)[C@@H](N)C1 [BB15] |  |  |  |  |  | -0.269 | -2.2% | 5.6 | -1.1 | -5.8 | 0.022
N#CN1C[C@@H]2C[C@H]1CN2 [BB12] |  |  |  |  |  | -6 | -3.6% | -3.7 | -5.0 | -0.7 | -9.2
N#CN1CCC[C@@H](N)C1 [BB4] |  |  |  |  |  | 2.7 | 5.1% | 0.8 | 5.0 | 3.9 | -2.1
N#CN1CC[C@H](N)C1 [BB3] |  |  |  |  |  | 0.556 | 3.7% | -1.4 | 5.8 | 3.1 | -1
N#CN1CC[C@@H](N)C1 [BB1] |  |  |  |  |  | 3.3 | 5.9% | 6.1 | 7.2 | 6.8 | 1.3
N#CN1CCC(n2cc(N)cn2)CC1 [BB16] |  |  |  |  |  | 0.0345 | 0.9% | 9.2 | -0.846 | -4.3 | 4

Now from value to compound:

%inhibition USP30 (USP30) [%] | %inhibition USP24 (USP24) [%] | %inhibition USP16 (USP16) [%] | inhibition at 1.25 µM (mUSP18; [1]) [%] | %inhibition SENP1 (SENP1) [%] | inhibition at 1.25 µM (OTUB2) [%] | BB %inhibition USP30 (USP30) | inhibition at 1.25 µM (USP24) [%] | BB %inhibition USP16 (USP16) [%] | inhibition at 1.25 µM (mUSP18; [2]) [%] | inhibition at 1.25 µM (SENP1) [%] | SMILES
65.3 | 3.2 | 15.0 | 24.6 | 12.8 |  |  |  |  |  |  | N#CN1CC[C@@H](NC(=O)Cc2csc(-c3cnccn3)n2)C1 [BB01CA92]
 |  |  |  |  | -1.4 | -0.656% | 5 | 1.2 | -0.216 | -5.2 | N#CN1CC(N)C1 [BB5]
 |  |  |  |  | -3.8 | -2.3% | -3.9 | -1.2 | -3.9 | -11.7 | N#CN1C[C@H]2C[C@H](N)C[C@H]2C1 [BB7]
 |  |  |  |  | -1.5 | -0.126% | 3.1 | 0.3 | -0.535 | -9 | N#CN1C[C@H]2C[C@@H](N)C[C@H]2C1 [BB6]
36.0 | -0.9 | 7.7 | 13.4 | 13.2 |  |  |  |  |  |  | N#CN1CC[C@@H](NC(=O)C(Cc2c[nH]cn2)NS(=O)(=O)c2ccc(Cl)cc2)C1 (some centres unmarked) [BB01CA91]
 |  |  |  |  | 5.6 | 7.5% | 5.7 | 4.4 | -0.9 | 10.1 | N#CN1C[C@H](N)[C@@H](O)C1 [BB13]
54.5 | 0.9 | 11.4 | 27.1 | 16.6 |  |  |  |  |  |  | N#CN1CC[C@@H](NC(=O)c2nc(N3CCCC3)ncc2Cl)C1 [BB01CA90]
73.0 | -1.8 | 11.4 | 24.1 | 8.5 |  |  |  |  |  |  | N#CN1CC[C@@H](NC(=O)c2ncoc2-c2cccs2)C1 [BB01CA94]
 |  |  | 95 |  |  |  |  |  |  |  | Cc1cc(C(=O)N[C@H]2C[C@@H]3CN(C#N)C[C@@H]3C2)ccc1Br [BB07CA28]
101.1 | 9.1 | 20.5 | 74.1 | 8.6 |  |  |  |  |  |  | N#CN1CC[C@@H](NC(=O)CCN(Cc2ccccc2)S(=O)(=O)c2c(Cl)cccc2Cl)C1 [BB01CA93]
 |  |  |  |  | -2 | ~35% and 31.5% | 0.33 | -1.3 | 2 | -5 | N#CN1CC[C@@H](NC(=O)c2ccc(CN)cc2)C1 [BB9]

— PMC12668310, “High‐Throughput Synthesis and Screening of a Cyanimide Library Identifies Selective Inhibitors of ISG15‐Specific Protease mUSP18” (Angewandte Chemie (International Ed. in English), 2025)
